The values below come from patent publication US7005434B2, “Compounds and uses thereof” (SB Corporation, priority 2001, dated 2006).

The test system of this experiment is angiogenesis (vascular density) in air pouch granuloma. The experiment is described as follows: Murine air pouch granuloma model of inflammatory angiogenesis. The experiment is classed as in vivo, mice. To be noted: positive control. From the text: C. Measurement of Angiogenesis in vivo—Murine Air Pouch Granuloma Model
The murine airpouch granuloma model of chronic inflammation (Kimura et al., 1985, J. Pharmacobio-Dyn., 8:393–400; Colville-Nash et al., 1995, J. Pharm. and Exp. Ther., 274:1463–1472) whose disclosure is incorporated herein by reference in its entirety, is characterized by inflammatory cell influx, fibrous tissue proliferation and intense angiogenesis. […] In addition, angiogenesis can be accurately quantitated by a vascular casting method.
Day −1, mice are anesthetized using Aerrane (isoflurane) gas (5%) or other approved methods, after which 3 mls of air is injected into the dorsal subcutaneous tissue using a 27 g needle. Mice are allowed to recover. […]
When the granuloma is removed it is weighed and then dried for 3 days at 45° C. and reweighed. […] The carmine content is then determined against a carmine red standard curve (0.5 to 2 mg/ml) generated in extracted tissue from non carmine treated animals and read at 490 nm. Sample and standard values are determined typically using DeltaSoft Elisa analysis software (Biometallics Inc., Princeton, N.J.). […]
The effect of compounds on vascular density is typically measured 6 days after induction of the granuloma. This time point has been determined to be at or near the peak of angiogenesis. […] Medroxyprogesterone has no effect on granuloma size as measured by dry weight.

On to medroxyprogesterone, for which the “effect on granuloma size as measured by dry weight” value is recorded as “no effect”. The “maximum reduction (vascular density / vascular index)” value (measured 6 days after induction) is reported as 50%.
